Assay [1] deals with Type 1 fimbrin D-mannose specific adhesin (Escherichia coli K-12, UniProt P08191). Description: Antagonist activity at recombinant 6His-tagged thrombin cleavage site of FimH Lectin domain expressed in Escherichia coli HM125 assessed as dissociation constant incubated for 24 hrs in presence of FITC-labeled tracer by competitive fluorescence polarization assay.
Assay [2] can be described thus: Antagonist activity at recombinant 6His-tagged thrombin cleavage site of FimH Lectin domain R98A mutant expressed in Escherichia coli HM125 assessed as dissociation constant measured after 24 hrs by fluorescence polarization assay.

Type 1 fimbrin D-mannose specific adhesin, sequence (P08191 whole entry, the tested form may be a part): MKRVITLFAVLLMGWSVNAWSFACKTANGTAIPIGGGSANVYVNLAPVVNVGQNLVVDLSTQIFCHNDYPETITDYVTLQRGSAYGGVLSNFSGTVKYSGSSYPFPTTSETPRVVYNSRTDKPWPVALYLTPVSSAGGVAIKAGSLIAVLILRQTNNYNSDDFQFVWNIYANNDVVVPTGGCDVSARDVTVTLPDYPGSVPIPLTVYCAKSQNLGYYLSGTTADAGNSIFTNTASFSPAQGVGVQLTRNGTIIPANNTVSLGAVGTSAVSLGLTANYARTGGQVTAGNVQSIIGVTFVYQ

Consider `CCCCCCCO[C@H]1O[C@H](CO)[C@@H](O)[C@H](O)[C@@H]1O`, for which the Kd came out at 36.8 nM in assay [1] and 35.6 nM in assay [2]. Consider `OC[C@H]1O[C@H](n2cc(-c3ccccc3)nn2)[C@@H](O)[C@@H](O)[C@@H]1O`, for which the dissociation constant (Kd) was determined as 336 nM in assay [1] and 297 nM in assay [2]. For `COC(=O)COc1ccc(-c2cn([C@H]3O[C@H](CO)[C@@H](O)[C@H](O)[C@@H]3O)nn2)cc1` the same measures were 66.2 nM and 7.22 nM. `COC(=O)COc1cccc(-c2cn([C@H]3O[C@H](CO)[C@@H](O)[C@H](O)[C@@H]3O)nn2)c1`: the values for the Kd in assay [1] and in assay [2] were 175 nM and 22.3 nM, respectively. For the compound `CCOC(=O)CCCCCCOc1cccc(-c2cn([C@H]3O[C@H](CO)[C@@H](O)[C@H](O)[C@@H]3O)nn2)c1`, the Kd in assay [1] turned out to be 69.1 nM; in assay [2] it was 13.4 nM.

Regarding `O=C(O)COc1ccc(-c2cn([C@H]3O[C@H](CO)[C@@H](O)[C@H](O)[C@@H]3O)nn2)cc1`, the Kd in assay [1] was found to be 171 nM; in assay [2], 14.6 nM.

In the case of `CCOC(=O)CCCCCOc1cccc(-c2cn([C@H]3O[C@H](CO)[C@@H](O)[C@H](O)[C@@H]3O)nn2)c1`, the Kd in assay [1] is 48.8 nM; in assay [2], 11.5 nM. Regarding `CCOC(=O)CCCCCCCOc1ccc(-c2cn([C@H]3O[C@H](CO)[C@@H](O)[C@H](O)[C@@H]3O)nn2)cc1`, the Kd in assay [1] is 42.8 nM; in assay [2], 8.8 nM.

As to `CCOC(=O)CCCCOc1ccc(-c2cn([C@H]3O[C@H](CO)[C@@H](O)[C@H](O)[C@@H]3O)nn2)cc1`, the Kd worked out at 50.6 nM in assay [1] and 10.1 nM in assay [2]. For the compound `O=C(O)CCCCCCOc1ccc(-c2cn([C@H]3O[C@H](CO)[C@@H](O)[C@H](O)[C@@H]3O)nn2)cc1`, the results for the dissociation constant Kd in assay [1] and in assay [2] were 37.8 nM and 7.6 nM, respectively. `O=C(O)COc1cccc(-c2cn([C@H]3O[C@H](CO)[C@@H](O)[C@H](O)[C@@H]3O)nn2)c1`: the Kd came out at 356 nM in assay [1] and 29 nM in assay [2]. On to `O=C(O)CCCOc1cccc(-c2cn([C@H]3O[C@H](CO)[C@@H](O)[C@H](O)[C@@H]3O)nn2)c1`, for which the dissociation constant Kd in assay [1] is 178 nM; in assay [2] it was 20.7 nM. Regarding `CCOC(=O)CCCCCCOc1ccc(-c2cn([C@H]3O[C@H](CO)[C@@H](O)[C@H](O)[C@@H]3O)nn2)cc1`, the Kd stood at 7.6 nM in assay [1] and 1.3 nM in assay [2]. In the case of `O=C(O)CCCOc1ccc(-c2cn([C@H]3O[C@H](CO)[C@@H](O)[C@H](O)[C@@H]3O)nn2)cc1`, the dissociation constant (Kd) in assay [1] was 63.3 nM; in assay [2], 9.45 nM. In the case of `O=C(O)CCCCCOc1cccc(-c2cn([C@H]3O[C@H](CO)[C@@H](O)[C@H](O)[C@@H]3O)nn2)c1`, the Kd amounted to 56 nM in assay [1] and 17.3 nM in assay [2]. In the case of `O=C(O)CCCCCOc1ccc(-c2cn([C@H]3O[C@H](CO)[C@@H](O)[C@H](O)[C@@H]3O)nn2)cc1`, the dissociation constant (Kd) in assay [1] worked out at 36.7 nM; in assay [2] it was 7.5 nM.

Regarding `O=C(O)CCCCOc1ccc(-c2cn([C@H]3O[C@H](CO)[C@@H](O)[C@H](O)[C@@H]3O)nn2)cc1`, the Kd in assay [1] is 48.5 nM; in assay [2] it was 11.2 nM. `CCOC(=O)CCCOc1ccc(-c2cn([C@H]3O[C@H](CO)[C@@H](O)[C@H](O)[C@@H]3O)nn2)cc1`: the dissociation constant Kd in assay [1] was determined as 60.7 nM; in assay [2] it was 8.07 nM. As for `CCOC(=O)CCCCCOc1ccc(-c2cn([C@H]3O[C@H](CO)[C@@H](O)[C@H](O)[C@@H]3O)nn2)cc1`, the Kd is 32.6 nM in assay [1] and 6.6 nM in assay [2]. `O=C(O)CCCCCCCOc1ccc(-c2cn([C@H]3O[C@H](CO)[C@@H](O)[C@H](O)[C@@H]3O)nn2)cc1`: the results for the dissociation constant (Kd) in assay [1] and in assay [2] were 44.7 nM and 10.1 nM, respectively. Taken in the same sequence, the figures for `CCOC(=O)CCCCCCCOc1cccc(-c2cn([C@H]3O[C@H](CO)[C@@H](O)[C@H](O)[C@@H]3O)nn2)c1` were 107 nM and 25 nM. Turning to `COC(=O)CCCOc1cccc(-c2cn([C@H]3O[C@H](CO)[C@@H](O)[C@H](O)[C@@H]3O)nn2)c1`, the Kd in assay [1] came out at 143 nM; in assay [2], 16 nM. For the compound `CCOC(=O)CCCCOc1cccc(-c2cn([C@H]3O[C@H](CO)[C@@H](O)[C@H](O)[C@@H]3O)nn2)c1`, the Kd in assay [1] is 65 nM; in assay [2], 16.2 nM. As for `O=C(O)CCCCCCCOc1cccc(-c2cn([C@H]3O[C@H](CO)[C@@H](O)[C@H](O)[C@@H]3O)nn2)c1`, in assay [1], the equilibrium dissociation constant (Kd) was more than 1000 nM. As for `O=C(O)CCCCCCOc1cccc(-c2cn([C@H]3O[C@H](CO)[C@@H](O)[C@H](O)[C@@H]3O)nn2)c1`, the Kd in assay [1] is 533 nM; in assay [2], 63.2 nM. Taken in the same sequence, the figures for `O=C(O)CCCCOc1cccc(-c2cn([C@H]3O[C@H](CO)[C@@H](O)[C@H](O)[C@@H]3O)nn2)c1` were 78.5 nM and 16.3 nM.

Source of the values: ChEMBL document CHEMBL4819007, “Does targeting Arg98 of FimH lead to high affinity antagonists?” (Eur J Med Chem, 2021).
